These results are taken from patent US8703751B2, “Androstenediol as an indicator for assessing estrogenicity” (The Regents of the University of California, priority 2009, dated 2014).

In one data set the target is T1, estrogen-alpha receptor (Homo sapiens, UniProt P03372).
T1 construct: human ovarian carcinoma cells (BG1) that have been stably transfected with a luciferase reporter gene plasmid; endogenous in cells; host or cells: BG1 human ovarian carcinoma cells stably transfected with an ERE-luciferase reporter plasmid
T1 sequence (P03372 whole entry): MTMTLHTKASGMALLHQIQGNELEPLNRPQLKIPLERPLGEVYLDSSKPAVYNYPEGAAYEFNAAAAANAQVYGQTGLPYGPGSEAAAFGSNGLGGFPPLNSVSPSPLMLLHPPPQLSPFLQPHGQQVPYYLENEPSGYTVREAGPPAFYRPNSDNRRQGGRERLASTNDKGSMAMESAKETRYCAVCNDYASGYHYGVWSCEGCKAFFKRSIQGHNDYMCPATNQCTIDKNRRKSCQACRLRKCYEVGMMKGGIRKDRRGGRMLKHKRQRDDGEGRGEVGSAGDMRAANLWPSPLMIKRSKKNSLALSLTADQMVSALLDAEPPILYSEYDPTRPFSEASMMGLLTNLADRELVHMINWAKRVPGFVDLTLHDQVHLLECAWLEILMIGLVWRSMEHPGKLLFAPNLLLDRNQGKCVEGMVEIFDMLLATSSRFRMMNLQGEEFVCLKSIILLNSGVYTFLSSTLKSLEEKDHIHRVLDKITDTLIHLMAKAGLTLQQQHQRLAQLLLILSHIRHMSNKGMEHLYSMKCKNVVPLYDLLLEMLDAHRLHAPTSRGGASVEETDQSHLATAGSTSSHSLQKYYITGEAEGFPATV
The data set can be described thus: cell-based estrogen receptor bioassay (BG1 cells, luciferase reporter under four estrogen-response elements) for estrogenicity. The following applies: for inherent estrogenic bioactivity (estrogenicity): at physiological circulating concentrations, FIG. 5 dose-response curves. The source says:
The total estrogen receptor ligand load (ERLL) can be determined using any method known in the art. The ERLL provides an estimate of the combined biological potential of the estrogen-alpha receptor ligand load contained in the sample. […] Other cell lines can find use. […] The detectable signal of any reporter gene known in the art can be used, including without limitation luciferase and fluorescent proteins (e.g., green fluorescent protein, yellow fluorescent protein, blue fluorescent protein, red fluorescent protein, etc.). In the case where […] is used as the reporter gene, […] substrate is added to the culture and the luciferase activity induced by the standards and/or test sample are measured using a Luminometer.
This assay assesses the total estrogenic bioactivity contained in a serum sample. Thus and estimate of the combined biological potential of the estrogen-alpha receptor ligand load (ERLL) contained in the sample. Thus the bioactivity of a sample will be appropriately estimated. Briefly, human ovarian carcinoma cells (BG1) that have been stably transfected with a luciferase reporter gene plasmid under the regulation of four estrogen-response elements were used to measure total bioactive estrogens. BG1 cells were cultured in Alpha Minimum Essential Medium (Alpha-MEM) with 10% fetal bovine serum (FBS). When cells reached 80% confluence, cells were trypsinized (0.05% trypsin-EDTA) and well dispersed in phenol-red free Dulbecco's […] (DMEM) supplemented with 10% dextran charcoal treated FBS (DCC-FBS). Suspended cells (0.05 mL/well; density of 25,000 cells/0.05 mL) were added to 96-well tissue culture plates containing 0.15 mL/well of phenol-red free DMEM supplemented with 10% DCC-FBS. On each of the two subsequent days (Days 2 and 3), the media in each well was removed and replaced with 0.2 mL phenol-red free DMEM supplemented with 10% DCC-FBS. […] To compensate for any serum matrix effects, DCC-FBS was added to the E2 standard preparation at a proportion equal to that of the serum content of the sample preparation (5% v/v). Serum samples were diluted in DCC-FBS with a final serum content of 5% (v/v). Plates were then incubated for an additional 18 hours. Media was then removed and 0.1 mL cell lysis buffer added to each well and allowed to incubate for 20 minutes. Cell lysates (0.04 mL) were transferred to 96-well Microfluor II plates (Fisher Scientific, Santa Clara, Calif.). Luciferin substrate was injected into each well and the luciferase activity induced by the standards and/or test serum was measured by a Veritas Luminometer (Turner Biosystems, Sunnyvale, Calif., USA).
The third element for developing the concept was that of gaining additional insight into the innate properties of all of the adrenal steroids that were associated with the rise of DS during the menopausal transition. For these investigations newly developed in vitro bioassays were used to adjudicate the estrogenicity of all for adrenal steroids (i.e., T, A-dione, 5A-diol and DHEA).
(In general: In a reporter assay the amount or activity of a reporter protein is the signal.)

For data set [1] the following is noted: cited from earlier work.
The conditions of data set [2]: local, intravaginal suppository; cited from earlier work.
The conditions of data set [3]: transdermal administration; 60-65 year old women; cited from earlier work.
The conditions of data set [4]: 25 mg oral dose for three months; from 0.32 ng/mL before (doubling); cited from earlier work.
The mark [5] stands for this setting: oral 50 mg/day for one year, women over 70 years old.

Entries after “also recorded” stand apart in the source; their conditions may differ.

For the compound `C[C@]12CC[C@H](O)CC1=CC[C@@H]1[C@@H]2CC[C@]2(C)C(=O)CC[C@@H]12` [DHEA, dehydroepiandrosterone], on estrogen-alpha receptor, the “estrogenic or not (discussion statement)” value is “not estrogenic”; the “inherent estrogenic bioactivity (estrogenicity)” value (shortened to “inherent estrogenic bioactivity”) was “only 5A-diol and estradiol had substantial inherent estrogenic bioactivity; also recorded: does not”. In addition, the “BMD and bone resorption” value in data set [1] (50 mg daily oral, adults 55-85 years of age, in women but not men) is on record as “only modest effect”. For the same compound, the muscle status result in data set [1] (50 mg/day oral, one year, men and women between 60 and 80 years of age) is listed as “no positive effect”. In data set [1] (setting [5]), the bone turnover result is “modestly decrease”, the libido entry was “increase” and the skin hydration result was “improve”. In addition, in data set [2], the age-related vaginal atrophy entry was “highly efficient treatment” and the “change in circulating sex steroid concentrations” value is listed as “no significant change”. Besides, in data set [3], the “increase in circulating DS” value is “five fold increase”; the “increase in circulating androstendiol glucuronides” value was “less than a two and one-half fold increase”. Further, the “circulating concentration of A-diol after treatment” value in data set [4] is 0.66 ng/mL.
Consider `C[C@]12CC[C@H]3[C@@H](CCC4=CC(=O)CC[C@@]43C)[C@@H]1CC[C@@H]2O` [T, testosterone], for which the “inherent estrogenic bioactivity” value at estrogen-alpha receptor is “only 5A-diol and estradiol had substantial inherent estrogenic bioactivity”.
On the same count and under the same terms, to `C[C@]12CCC(=O)C=C1CC[C@@H]1[C@@H]2CC[C@]2(C)C(=O)CC[C@@H]12` [A-dione, androstendione] belongs “only 5A-diol and estradiol had substantial inherent estrogenic bioactivity”.
For `C[C@]12CC[C@H]3[C@@H](CC=C4C[C@@H](O)CC[C@@]43C)[C@@H]1CC[C@@H]2O` [5A-diol, (3-beta,17-beta)-Androst-5-ene-3,17-diol], on estrogen-alpha receptor, the “estrogenic or not (discussion statement)” value was “is estrogenic” and the “inherent estrogenic bioactivity” value is reported as “substantial inherent estrogenic bioactivity”. For the same compound, the “inherent estrogenic bioactivity” value at estrogen-alpha receptor (listed as androstenediol) is “significant “estrogenicity” at physiological levels”.
